Laboratory results published in paper PMC9578396, “Intrinsic Antibacterial Activity of Xeruborbactam In Vitro: Assessing Spectrum and Mode of Action” (Antimicrobial Agents and Chemotherapy, 2022).
“And” between values parts separate entries of the source, which are not always exact repeats. Equal values may be shown once. Read-outs that look alike come from different tables or passages of the source.

Experiments:
Type in all cases: cell-based
Enterococcus faecalis = experiment: MIC, Enterococcus faecalis
From the text: Bacterial isolates were subjected to broth microdilution susceptibility testing, performed according to Clinical and Laboratory Standards Institute (CLSI) methods ([46]), using panels prepared in-house. Meropenem was purchased from Sandoz, and all other antibiotics were from Sigma-Aldrich. Xeruborbactam was synthesized at Qpex Biopharma, San Diego, CA. Avibactam was purchased from eNovation Chemicals LLC, Bridgewater, NJ, USA; zidebactam was from MedKoo Biosciences, Inc., Morrisville, NC, and nacubactam was from Advanced ChemBlocks, Hayward, CA. Durlobactam was synthesized at Acme Bioscience, Palo Alto, CA, USA.

Escherichia coli = experiment: Broth microdilution MIC (CLSI), Escherichia coli
Method in brief: (§1)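 MICs by CLSI broth microdilution in in-house panels. Strains tested were engineered strains carrying porin and efflux mutation combinations, KPC-producing clinical isolates and derivatives cured of KPC plasmids, and KPC-producing clinical isolates enriched for porin mutations.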

Klebsiella pneumoniae = experiment: microbe, parasite or virus in culture; conditions: for MIC90: read-out: MIC90
Method in brief: as §1

[1] = Klebsiella pneumoniae, 575 isolates
[2] = Klebsiella pneumoniae, K. pneumoniae CRE, 418 isolates
[3] = Klebsiella pneumoniae, K. pneumoniae CRE, KPC, 163 isolates
[4] = Klebsiella pneumoniae, K. pneumoniae CRE, OXA-48-like, 89 isolates
[5] = Klebsiella pneumoniae, K. pneumoniae CRE, metallo-beta-lactamase, 126 isolates
[6] = Klebsiella pneumoniae, K. pneumoniae CRE, non-carbapenemase producing, 40 isolates

Question: Which MIC (Enterococcus faecalis; all the E. faecalis strains, n = 16) does the source give for `O=C(O)c1c(F)ccc2c1OB(O)[C@@H]1C[C@H]21` [Xeruborbactam] here?
Answer: Its MIC is over 32 µg/mL.

Question: And the MIC (Enterococcus faecalis; efs003)?
Answer: The MIC was over 32 µg/mL.

Question: What about the MIC (Enterococcus faecalis; efs004) of the same compound?
Answer: The MIC was over 32 µg/mL.

Question: What about the MIC (Enterococcus faecalis; efs005) of the same compound?
Answer: The MIC was over 32 µg/mL.

Question: What about the MIC (Enterococcus faecalis; efs006) of the same compound?
Answer: The MIC was over 32 µg/mL.

Question: What about the MIC (Enterococcus faecalis; efs007) of the same compound?
Answer: The MIC was over 32 µg/mL.

Question: And the MIC (Enterococcus faecalis; efs026)?
Answer: The MIC was over 32 µg/mL.

Question: And the MIC (Enterococcus faecalis; efs071)?
Answer: Its MIC is over 32 µg/mL.

Question: And the MIC (Enterococcus faecalis; efs072)?
Answer: The MIC was over 32 µg/mL.

Question: And the MIC (Enterococcus faecalis; efs073)?
Answer: The MIC was over 32 µg/mL.

Question: And the MIC (Enterococcus faecalis; efs090)?
Answer: Its MIC is over 32 µg/mL.

Question: And the MIC (Enterococcus faecalis; efs091)?
Answer: Its MIC is over 32 µg/mL.

Question: And the MIC (Enterococcus faecalis; efs092)?
Answer: Its MIC is over 32 µg/mL.

Question: What about the MIC (Enterococcus faecalis; efs093) of the same compound?
Answer: The MIC was over 32 µg/mL.

Question: And the MIC (Enterococcus faecalis; efs094)?
Answer: The MIC was over 32 µg/mL.

Question: And the MIC (Enterococcus faecalis; efs095)?
Answer: Its MIC is over 32 µg/mL.

Question: What about the MIC (Enterococcus faecalis; efs096) of the same compound?
Answer: Its MIC is over 32 µg/mL.

Question: And the MIC (Escherichia coli; EC1078, PBP2 same as MG1655, PBP3 I332V)?
Answer: The MIC was 32.

Question: And the MIC (Escherichia coli; EC1081, PBP2 same as MG1655, PBP3 Q227H)?
Answer: The MIC was 8.

Question: And the MIC (Escherichia coli; EC1085, PBP2 T331P, PBP3 A233T I332V)?
Answer: The MIC was 8.

Question: And the MIC (Escherichia coli; EC1088, PBP2 A308G, PBP3 same as MG1655)?
Answer: The MIC was 8.

Question: And the MIC (Escherichia coli; EC1097, PBP2 M574I, PBP3 Q227H)?
Answer: The MIC was 8.

Question: And the MIC (Escherichia coli; EC1098, PBP2 V217M, PBP3 YRIN ins, I532L)?
Answer: The MIC was 8.

Question: What about the MIC (Escherichia coli; EC1103, PBP2 same as MG1655, PBP3 YRIN ins, Q227H, E349K, I532L) of the same compound?
Answer: The MIC was 8.

Question: And the MIC (Escherichia coli; EC1105, PBP2 A543T, PBP3 YRIN ins, Q227H, E349K, I532L)?
Answer: Its MIC is 8.

Question: What about the MIC (Escherichia coli; EC1119, PBP2 same as MG1655, PBP3 YRIN ins, Q227H, E349K, I532L) of the same compound?
Answer: Its MIC is 32.

Question: What about the MIC (Escherichia coli; EC1121, PBP2 V217M, PBP3 YRIN ins, E349K, I532L) of the same compound?
Answer: Its MIC is 8.

Question: And the MIC50 (Escherichia coli; Escherichia coli, 334 isolates)?
Answer: Its MIC50 is 8 µg/mL.

Question: And the MIC90 (Escherichia coli; Escherichia coli, 334 isolates)?
Answer: Its MIC90 is 16 µg/mL.

Question: What about the MIC range (Escherichia coli; Escherichia coli, 334 isolates) of the same compound?
Answer: The MIC range was 2 to 32 µg/mL.

Question: What about the MIC (Escherichia coli; Escherichia coli, Escherichia coli isolates, read-out: highest MIC observed) of the same compound?
Answer: Its MIC is 32 µg/mL.

Question: And the MIC (Escherichia coli; Escherichia coli, MG1655, Escherichia coli ECM5497 (MG1655), read-out: MIC)?
Answer: Its MIC is 72 µM and 16 µg/mL.

Question: And the MIC (Escherichia coli; Escherichia coli, clinical isolate EC1078, OmpK35 NF, OmpK36 NF, read-out: MIC)?
Answer: Its MIC is 32 µg/mL.

Question: And the MIC (Escherichia coli; Escherichia coli, clinical isolate EC1081, OmpK35 FN, OmpK36 FN, read-out: MIC)?
Answer: Its MIC is 8 µg/mL.

Question: What about the MIC (Escherichia coli; Escherichia coli, clinical isolate EC1085, OmpK35 FN, OmpK36 FN, read-out: MIC) of the same compound?
Answer: The MIC was 8 µg/mL.

Question: What about the MIC (Escherichia coli; Escherichia coli, clinical isolate EC1088, OmpK35 FN, OmpK36 FN, read-out: MIC) of the same compound?
Answer: Its MIC is 8 µg/mL.

Question: And the MIC (Escherichia coli; Escherichia coli, clinical isolate EC1097, OmpK35 FN, OmpK36 FN, read-out: MIC)?
Answer: Its MIC is 8 µg/mL.

Question: What about the MIC (Escherichia coli; Escherichia coli, clinical isolate EC1098, OmpK35 NF, OmpK36 FN, read-out: MIC) of the same compound?
Answer: The MIC was 8 µg/mL.

Question: And the MIC (Escherichia coli; Escherichia coli, clinical isolate EC1119, OmpK35 NF, OmpK36 NF, read-out: MIC)?
Answer: The MIC was 32 µg/mL.

Question: And the MIC (Escherichia coli; Escherichia coli, clinical isolate EC1121, OmpK35 NF, OmpK36 FN, read-out: MIC)?
Answer: The MIC was 8 µg/mL.

Question: What about the MIC (Escherichia coli; Escherichia coli, strain ECM5497, wild type, read-out: MIC) of the same compound?
Answer: Its MIC is 8 µg/mL.

Question: What about the MIC (Escherichia coli; Escherichia coli, strain ECM6001, ΔacrB) of the same compound?
Answer: The MIC was 8 µg/mL.

Question: What about the MIC (Escherichia coli; Escherichia coli, strain ECM6502, marR (AcrAB overexpression)) of the same compound?
Answer: Its MIC is 8 µg/mL.

Question: What about the MIC (Escherichia coli; Escherichia coli, strain ECM5497, read-out: MIC) of the same compound?
Answer: Its MIC is 8 µg/mL.

Question: And the “isolates with MIC values in an 8- to 16-μg/mL range” value (Klebsiella pneumoniae; 228 isolates with the full-length OmpK36)?
Answer: The value was ~ 95%.

Question: And the MIC range (Klebsiella pneumoniae; K. pneumoniae ESBL phenotype, 157 isolates)?
Answer: Its MIC range is 4 to 32 µg/mL.

Question: And the “percentage of strains with xeruborbactam MIC values ≥32 µg/ml” value (Klebsiella pneumoniae; K. pneumoniae clinical isolates, OmpK36 full length (n=228))?
Answer: The value was 5.3%.

Question: What about the MIC (Klebsiella pneumoniae; Klebsiella pneumoniae KPM1001 (ATCC 49816)) of the same compound?
Answer: The MIC was 16 µg/mL.

Question: What about the MIC (Klebsiella pneumoniae; Klebsiella pneumoniae KPM1001 (ATCC 49816), read-out: MIC) of the same compound?
Answer: The MIC was 72 µM.

Question: And the MIC50 (Klebsiella pneumoniae; [1])?
Answer: The MIC50 was 16 µg/mL.

Question: And the MIC90 (Klebsiella pneumoniae; [1])?
Answer: Its MIC90 is 32 µg/mL.

Question: What about the MIC (Klebsiella pneumoniae; Klebsiella pneumoniae, ATCC49816, Klebsiella pneumoniae KPM1001 (ATCC 49816), read-out: MIC) of the same compound?
Answer: The MIC was 72 µM and 16 µg/mL.

Question: What about the MIC (Klebsiella pneumoniae; Klebsiella pneumoniae, BAA2814, KPC-3-producing KP1074 (BAA-2814), xeruborbactam none, read-out: MIC) of the same compound?
Answer: The MIC was 16 to 32 µg/mL.

Question: And the MIC50 (Klebsiella pneumoniae; [2])?
Answer: Its MIC50 is 16 µg/mL.

Question: And the MIC90 (Klebsiella pneumoniae; [2])?
Answer: Its MIC90 is 32 µg/mL.

Question: And the MIC50 (Klebsiella pneumoniae; [3])?
Answer: Its MIC50 is 16 µg/mL.

Question: What about the MIC90 (Klebsiella pneumoniae; [3]) of the same compound?
Answer: The MIC90 was 32 µg/mL.

Question: What about the MIC50 (Klebsiella pneumoniae; [4]) of the same compound?
Answer: The MIC50 was 16 µg/mL.

Question: And the MIC90 (Klebsiella pneumoniae; [4])?
Answer: Its MIC90 is 64 µg/mL.

Question: And the MIC50 (Klebsiella pneumoniae; [5])?
Answer: Its MIC50 is 16 µg/mL.

Question: And the MIC90 (Klebsiella pneumoniae; [5])?
Answer: Its MIC90 is 32 µg/mL.

Question: What about the MIC50 (Klebsiella pneumoniae; [6]) of the same compound?
Answer: The MIC50 was 16 µg/mL.

Question: And the MIC90 (Klebsiella pneumoniae; [6])?
Answer: Its MIC90 is 32 µg/mL.

Question: And the MIC50 (Klebsiella pneumoniae; Klebsiella pneumoniae, K. pneumoniae ESBL phenotype, 157 isolates)?
Answer: Its MIC50 is 16 µg/mL.
